We go through 6 molecules from patent publication US7888527B2 (University of Virginia Patent Foundation, priority 2004, dated 2011).

The target of test [1] is T1, human S1P1 receptor (Homo sapiens, UniProt P21453). Nature of the test: [32P]S1P binding assay, HEK293T membranes. To be noted: read-out: pKi S1P1 (converted). Set-up: expressed in transfected cells; host or cells: HEK293T, transient transfection; membranes. How it is done:
(§1) [^32P]-S1P was prepared by incubating sphingosine and [γ-^32P]ATP with cell lysate from HEK293T cells transiently transfected with human sphingosine kinase type 2 DNA. The 200 μl reaction contained 0.025 mM sphingosine, 1 mCi [γ-^32P]ATP (7000 Ci/mmol) and kinase buffer (in mM: Mg(C2H3O2)2 (in 50 mM Tris, pH 7.5)/10, NaF/10, and semicarbizide/2). The reaction was initiated by the addition of 20 μg of cell lysate and incubated at 37° C. for at least 30 minutes. […] The organic layer was isolated and the extraction procedure repeated two additional times with the remaining aqueous fraction. The combined organic fractions were dried under a stream of nitrogen gas and resuspended in aqueous 0.1% fatty acid free BSA.
(§2) Bound ligand was separated from free ligand by rapid filtration and analyzed in a liquid scintillation counter.
(§3) Statistical Analysis. The EC50 and IC50 values for all dose response curves were determined by nonlinear regression analysis of all data using the Graphpad Prism© program. The error associated with the data collected is reported as the standard error of the mean (S.E.M).

The target in test [2] is T1, human S1P1 receptor. As to the kind of experiment: [γ-35S]GTP binding assay, HEK293T membranes (agonism and Schild antagonism). The format is biochemical. Set-up: expressed in transfected cells; host or cells: HEK293T, transient transfection; membranes; key to Schild analysis flag on pKb S1P1: *: Based on Schild analysis, the antagonism observed was not competitive. The conditions noted are these: for Kb: read-out: pKb S1P1 (converted); for Agonist efficacy class S1P1: relative to S1P Emax; for EC50: -log molar concentration giving 50% of maximal [γ-35S]GTP binding, ± S.E.M., read-out: pEC50 S1P1 (converted).
Description: (§4) The appropriate receptor plasmid DNA (encoding human S1P1, human S1P2, human S1P3, human S1P4, human S1P5, human LPA1, human LPA2 or human LPA3 receptors) is mixed with equal amounts of expression plasmids encoding human Gi2α (for S1P3, a mutated (C352F) rat Gi2α is used), cow β1, and cow γ2 proteins, and these DNAs are used to transfect monolayers of HEK293T cells (where ‘T’ indicates expression of the SV-40 virus large T antigen) using the calcium phosphate precipitate method (7). After about 60 hours, cells are harvested, membranes prepared, aliquoted, and stored at −70° C. until use (8).
(§5) The [γ-^35S]GTP binding assay is performed as described previously (8). Membranes containing 1-5 μg of protein are incubated in 0.1 ml of binding buffer (in mM: HEPES/50, NaCl/100, MgCl2/10, pH 7.5) containing 5 μg of saponin, 10 μM GDP, 0.1 nM [γ-^35S]GTP (1200 Ci/mmol), and indicated lipid(s) for 30 min at 30° C. and collected using a Brandel Cell Harvester (Gaithersburg, Md.). Samples are then analyzed for bound radionuclide.
(§6) Briefly, nonlinear analysis of the best-fit line generated by plotting the negative log of the EC50 values obtained from agonist dose-response curves, in the absence and presence of varying concentrations of antagonist, was plotted against the concentration of antagonist to give the Kb value.
as §3

The target in test [3] is T1, human S1P1 receptor. As to the kind of experiment: Cell migration assay, T24 cells transfected stably with human S1P1 receptor. The format is cell-based. To be noted: 50 nM antagonist. Further details: expressed in transfected cells. How it is done: […] monolayers are co-transfected with the human S1P1, S1P2, S1P3 receptor encoding DNAs and the pIRESpuro2 plasmid DNA (Clontech, San Jose, Calif.,) using either Lipofectamine 2000 (Invitrogen, Carlsbad, Calif.) or FuGENE 6 (Roche Applied Science, Indianapolis, Ind.). Clonal populations expressing the puromycin acetyltransferase gene are selected by addition of puromycin (Sigma-Aldrich, St. Louis, Mo.) to the culture media. T24 cells are grown in monolayers at 37° C. in a 5% CO2/95% air atmosphere in growth media consisting of: 95% DMEM/F-12 medium and 10% charcoal/dextran stripped FBS.
Cell migration assays are performed using modified Boyden chambers (tissue culture-treated, 24-mm diameter, 10-μm thickness, 8-μm pores, Transwell®; Costar Corp., Cambridge, Mass.) containing polycarbonate membranes that are coated on the underside with 0.1% gelatin. The underside of the polycarbonate membranes is rinsed once with migration media (DMEM/F12 without Phenol Red and 0.1% fatty acid free BSA) and then immersed in the lower chamber containing two milliliters of migration media. T24 cells transfected stably with human S1P1 receptor DNA were grown in DMEM/F12 media containing charcoal/dextran stripped FBS and 10 μg/ml puromycin to 100% confluence in 150×2.5 mm tissue culture plates and serum starved at least 12 hours. Serum-starved cells were removed from culture dishes with 10× Trypsin-EDTA (Hanks' balanced salt solution containing 5 mM EDTA and 25 mM HEPES, pH 7.2, and 0.1% trypsin; Invitrogen, San Diego, Calif.), suspended in migration buffer and collected by centrifugation at 130×g for 5 minutes. The supernatant fluid was removed by aspiration and cell pellet resuspended in migration media (10^6 cells/ml). […] The non-migrating cells in the upper chamber were removed by aspiration and the migratory cells attached to the bottom surface of the membrane were isolated by incubation in 10× Trypsin-EDTA for 1 min at room temperature and gently tapping the plate to dislodge cells from the membrane. The mass of migratory cells per membrane was evaluated by combining 100 μl of cell suspension with an equal volume of CyQuant dye solution (3.0 ml of 2× lysis buffer and 15 μl CyQuant dye), and the resulting fluorescence quantified using the FlexStation™ fluorimeter (Molecular Devices, Menlo Park, Calif.). Each determination represents the average of two individual migration chambers. […] The monolayer was washed three times with phosphate buffered saline and processed immediately for the cell migration assay, as described above.

Test [4] concerns the target T2, human S1P3 receptor (Homo sapiens, UniProt Q99500). Nature of the test: [γ-35S]GTP binding assay, HEK293T membranes (agonism and Schild antagonism). Type of test: biochemical. To be noted: for Kb: read-out: pKb S1P3 (converted); for Agonist efficacy class S1P3: relative to S1P Emax. Set-up: expressed in transfected cells; host or cells: HEK293T, transient transfection; membranes; key to Schild analysis flag on pKb S1P3: *: Based on Schild analysis, the antagonism observed was not competitive.
Description: as §4, §5, §6, §3

The next test addresses T3, human S1P5 receptor (Homo sapiens, UniProt Q9H228).
T3 construct: expressed in transfected cells; host or cells: HEK293T, transient transfection; membranes
Nature of the test: [γ-35S]GTP binding assay, HEK293T membranes. The conditions noted are these: for EC50: -log molar concentration giving 50% of maximal [γ-35S]GTP binding, ± S.E.M., read-out: pEC50 S1P5 (converted); for Agonist efficacy class S1P5: relative to S1P Emax. Type of test: biochemical.
Description: as §4, §5, §3

The next test has as its target T4, S1P2 receptor (Homo sapiens, UniProt O95136).
T4 construct: expressed in transfected cells; host or cells: HEK293T, transient transfection; membranes
Nature of the test: [γ-35S]GTP binding assay, HEK293T membranes. To be noted: for EC50: -log molar concentration giving 50% of maximal [γ-35S]GTP binding, ± S.E.M., read-out: pEC50 S1P2 (converted). Type of test: biochemical.
Description: as §4, §5, §3

Another test has as its target T5, human S1P4 receptor (Homo sapiens, UniProt O95977).
T5 construct: expressed in transfected cells; host or cells: HEK293T, transient transfection; membranes
T5 sequence (O95977 1-384): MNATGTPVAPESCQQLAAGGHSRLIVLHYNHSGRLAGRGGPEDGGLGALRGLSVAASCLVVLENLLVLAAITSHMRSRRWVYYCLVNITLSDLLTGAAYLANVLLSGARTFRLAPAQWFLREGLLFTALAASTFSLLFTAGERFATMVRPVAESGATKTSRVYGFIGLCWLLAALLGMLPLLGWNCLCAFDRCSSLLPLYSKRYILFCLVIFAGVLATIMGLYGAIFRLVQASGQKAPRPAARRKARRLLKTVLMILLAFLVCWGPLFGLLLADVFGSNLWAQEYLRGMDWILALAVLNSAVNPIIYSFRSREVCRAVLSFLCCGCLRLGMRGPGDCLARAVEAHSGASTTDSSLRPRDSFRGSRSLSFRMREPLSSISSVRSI
Nature of the test: [γ-35S]GTP binding assay, HEK293T membranes. The format is biochemical. The conditions noted are these: -log molar concentration giving 50% of maximal [γ-35S]GTP binding; ± S.E.M.; read-out: pEC50 S1P4 (converted).
Description: as §4, §5, §3

Test [5] deals with T2, human S1P3 receptor. Nature of the test: [32P]S1P binding assay, HEK293T membranes. Set-up: expressed in transfected cells; host or cells: HEK293T, transient transfection; membranes. To be noted: for Ki: read-out: pKi S1P3 (converted). How it is done:
as §1, §2, §3

Structures are written as SMILES. A value given as a limit tells only on which side of the number the result lay.

T4 sequence (O95136 whole entry): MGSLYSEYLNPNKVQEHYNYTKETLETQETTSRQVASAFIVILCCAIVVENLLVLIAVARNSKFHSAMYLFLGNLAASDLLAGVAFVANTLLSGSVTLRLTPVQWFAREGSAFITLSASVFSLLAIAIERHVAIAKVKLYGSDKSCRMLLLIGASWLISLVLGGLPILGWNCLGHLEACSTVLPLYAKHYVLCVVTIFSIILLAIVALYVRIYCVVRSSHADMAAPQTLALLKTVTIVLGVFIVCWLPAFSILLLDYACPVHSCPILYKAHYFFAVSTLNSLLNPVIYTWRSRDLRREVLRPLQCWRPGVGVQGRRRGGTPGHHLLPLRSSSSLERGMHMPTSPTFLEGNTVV
T3 sequence (Q9H228 whole entry): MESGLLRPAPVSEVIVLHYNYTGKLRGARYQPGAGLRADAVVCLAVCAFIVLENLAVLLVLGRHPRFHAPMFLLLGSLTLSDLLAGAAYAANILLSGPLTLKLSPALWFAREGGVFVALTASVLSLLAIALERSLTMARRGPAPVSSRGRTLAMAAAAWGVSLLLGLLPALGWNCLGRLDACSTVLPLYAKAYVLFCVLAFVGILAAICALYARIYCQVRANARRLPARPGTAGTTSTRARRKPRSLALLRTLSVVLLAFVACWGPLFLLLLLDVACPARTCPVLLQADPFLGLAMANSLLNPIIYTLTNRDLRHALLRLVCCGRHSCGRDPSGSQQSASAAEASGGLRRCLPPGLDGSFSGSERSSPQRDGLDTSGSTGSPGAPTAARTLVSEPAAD
T1 sequence (P21453 whole entry): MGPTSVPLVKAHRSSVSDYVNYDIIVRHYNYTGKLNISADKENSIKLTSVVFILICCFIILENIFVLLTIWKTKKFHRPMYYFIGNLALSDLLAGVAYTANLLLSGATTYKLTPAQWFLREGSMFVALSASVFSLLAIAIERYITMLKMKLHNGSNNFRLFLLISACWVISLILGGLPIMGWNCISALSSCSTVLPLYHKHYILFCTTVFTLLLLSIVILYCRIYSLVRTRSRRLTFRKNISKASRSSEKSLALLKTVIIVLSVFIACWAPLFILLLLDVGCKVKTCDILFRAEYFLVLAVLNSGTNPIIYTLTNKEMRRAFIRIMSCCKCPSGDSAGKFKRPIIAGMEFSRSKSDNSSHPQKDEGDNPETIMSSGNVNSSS
T2 sequence (Q99500 whole entry): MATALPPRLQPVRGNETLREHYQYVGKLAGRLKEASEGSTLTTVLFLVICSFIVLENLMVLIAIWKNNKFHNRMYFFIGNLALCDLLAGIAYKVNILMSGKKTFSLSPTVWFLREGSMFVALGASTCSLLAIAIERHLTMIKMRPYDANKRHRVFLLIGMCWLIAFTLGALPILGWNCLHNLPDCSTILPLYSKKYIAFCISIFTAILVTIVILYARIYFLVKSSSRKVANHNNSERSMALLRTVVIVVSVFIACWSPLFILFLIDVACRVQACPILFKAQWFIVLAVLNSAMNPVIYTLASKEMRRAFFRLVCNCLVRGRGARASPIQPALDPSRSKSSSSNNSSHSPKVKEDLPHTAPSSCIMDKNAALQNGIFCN

In the case of `CCCCCCc1cccc(NC(=O)[C@H](N)COP(=O)(O)O)c1` [VPC23031], on human S1P1 receptor [1], the Ki was 61.7 nM. In addition, on human S1P1 receptor [2], the Kb is 135 nM and the “Agonist efficacy class S1P1” value is listed as “na (no agonist activity (<10% of S1P Emax))”. The “Blockade of VPC22277 (10 nM)-induced migration” value (“Blockade of VPC22277” below) at human S1P1 receptor [3] is on record as “Blockade”. For the same molecule, on human S1P3 receptor [4], the “Schild analysis flag on pKb S1P3” value is on record as “*”, the Kb is 10500 nM and the “Agonist efficacy class S1P3” value is reported as “na (no agonist activity (<10% of S1P Emax))”. Also, at human S1P5 receptor, the EC50 is 135 nM and the “Agonist efficacy class S1P5” value is “(wpa) (weak partial agonist activity (10-50% of S1P Emax))”. On S1P2 receptor, the EC50 was more than 10000 nM. Further, the EC50 at human S1P4 receptor is 1100 nM.
On to `CCCCCCCCc1ccccc1NC(=O)[C@H](N)COP(=O)(O)O` [VPC23089], for which the Ki at human S1P1 receptor [1] is 891 nM; on human S1P3 receptor [5] it was 1580 nM. In addition, the Kb on human S1P1 receptor [2] is 490 nM; at human S1P3 receptor [4], 437 nM. In addition, on human S1P1 receptor [2], the “Agonist efficacy class S1P1” value is reported as “na (no agonist activity (<10% of S1P Emax))”. Besides, the “Blockade of VPC22277” value at human S1P1 receptor [3] was “Blockade”. For the same molecule, at human S1P3 receptor [4], the “Schild analysis flag on pKb S1P3” value is reported as “*”. For the same molecule, the “Agonist efficacy class S1P3” value on human S1P3 receptor [4] was “na (no agonist activity (<10% of S1P Emax))”. Besides, the EC50 at human S1P5 receptor is more than 10000 nM; on S1P2 receptor, more than 10000 nM; at human S1P4 receptor it was 851 nM.
As to `CCCCCCCCCc1cccc(NC(=O)[C@H](N)COP(=O)(O)O)c1` [VPC23079], on human S1P1 receptor [2], the “Agonist activity at the S1P1 receptor” value is “agonists (or partial agonists)”. Further, the figures for the EC50 on human S1P1 receptor [2], at S1P2 receptor and on human S1P4 receptor were 676 nM, more than 10000 nM and 1170 nM, respectively. Moreover, on human S1P3 receptor [4], the “Agonist efficacy class S1P3” value is “na (no agonist activity (<10% of S1P Emax))”. Further, the “Agonist efficacy class S1P5” value on human S1P5 receptor was “na (no agonist activity (<10% of S1P Emax))”.
With `CCCCCCCCCCc1cccc(NC(=O)[C@H](N)COP(=O)(O)O)c1` [VPC23069], the “Agonist activity at the S1P1 receptor” value at human S1P1 receptor [2] was “agonists (or partial agonists)”. Also, the EC50 at human S1P1 receptor [2] is 81.3 nM; on human S1P3 receptor [4] (-log molar concentration giving 50% of maximal [γ-35S]GTP binding, ± S.E.M., read-out: pEC50 S1P3 (converted)), 1910 nM; at human S1P5 receptor, more than 10000 nM; on S1P2 receptor, more than 10000 nM; at human S1P4 receptor, 851 nM. Further, the “Agonist efficacy class S1P3” value on human S1P3 receptor [4] is “(wpa) (weak partial agonist activity (10-50% of S1P Emax))”.
Take `CCCCCCCc1cccc(NC(=O)[C@H](N)COP(=O)(O)O)c1` [VPC25239]: the Ki at human S1P1 receptor [1] was 13.5 nM. Further, on human S1P3 receptor [5], the “Potency at the S1P3 receptor relative to lead compound VPC23019” value is “one log order more potent” and the Ki is 97.7 nM. Also, at human S1P1 receptor [2], the “Schild analysis flag on pKb S1P1” value is reported as “*”, the Kb was 562 nM and the “Agonist efficacy class S1P1” value is given as “na (no agonist activity (<10% of S1P Emax))”. Also, at human S1P1 receptor [3], the “Blockade of VPC22277” value is “Blockade”. In addition, on human S1P3 receptor [4], the Kb was 1410 nM and the “Agonist efficacy class S1P3” value is listed as “na (no agonist activity (<10% of S1P Emax))”. On human S1P5 receptor, the EC50 was 11.5 nM and the “Agonist efficacy class S1P5” value was “(pa) (partial agonist activity (50-85% of S1P Emax))”. The EC50 at S1P2 receptor was more than 10000 nM. In addition, the EC50 on human S1P4 receptor is 166 nM.
For `CCCCCCCCc1cccc(NC(=O)[C@@H](N)COP(=O)(O)O)c1` [VPC25027], at human S1P1 receptor [2], the “Agonist activity at the S1P1 receptor” value was “agonists (or partial agonists)”, the EC50 is 2.24 nM and the “Agonist efficacy class S1P1” value is on record as “(pa) (partial agonist activity (50-85% of S1P Emax))”. Besides, at human S1P3 receptor [4], the “Agonist efficacy class S1P3” value is “na (no agonist activity (<10% of S1P Emax))”. For the same molecule, the “Agonist efficacy class S1P2” value on S1P2 receptor (relative to S1P Emax) is recorded as “na (no agonist activity (<10% of S1P Emax))”.
